Entries after “also recorded” stand apart in the source; their conditions may differ.
Tests used:
[1] = Metabolic stability in mouse hepatocytes; assay type: in vitro ADME; conditions: 1 μM
Procedure: Cryopreserved mouse hepatocytes were thawed at 37° C. in water bath until the ice was almost melted (˜90 seconds). The suspensions from the each were immediately transferred to 50 mL centrifuge tubes containing pre-warmed thawing media (VitroGRO HT Medium, Thawing) at 37° C. The cell suspensions were centrifuged at 50 g for 5 minutes at 4° C. (SYS679). Supernatants were discarded and the pellets were re-suspended in pre-warmed 3 mL incubation media (from in vitroGRO HT Medium, Incubation) at 37° C. The percentages of viable cells in the suspension were determined by using the Trypan Blue stain method (20 μL of tryptan blue and 20 μL of cell suspension) DF=2. Cryo mouse hepatocyte (Bioreclamation, lot #CHV) viability was 72.62% (viable/dead=305/115), and the total cells were 4.57 million. 1.57 mL of incubation media was added to cell concentration to get 1 million cells/mL. 10 μl of 100 μM test compounds stock in ACN:H2O (v:v, 1:1) was added to 990 μl of hepatocyte suspension/incubation media in a 24-well plate. 10 μl of 20 μM Midazolam was added to 990 μl of hepatocyte suspension as a positive control in a 24-well plate. The cells were incubated in a 37° C. incubator (SYS431) for 4 hours. 50 μl of aliquots (n=2) were added to 800 ul of MeOH:water (v:v, 5:95) at 0, 15, 30, 60, 120, 180 and 240 minutes. For all samples, 20 μL of internal standard (200 ng/mL tolbutamide) was added to the solution in water. The samples were vortexed vigorously for 5 minutes and then loaded onto a pre-conditioned Oasis HLB 96-well SPE plate (10 mg, […]). The Oasis HLB 96-well SPE plate was conditioned with 1 mL of methanol and then rinsed with 1 mL of water before the samples were loaded. Once loaded onto the Oasis HLB 96-well SPE plate, residual solution was removed by vacuum. The samples were eluted into a clean 96-well plate with 800 μL of 0.1% formic acid in 70% acetonitrile. The samples were evaporated to dryness under nitrogen at ambient temperature using a TurboVap 96 Concentration Workstation (Caliper Life Sciences). […]

[2] = tested on: splenocytes isolated from SJL-DQ8 mice; assay: Ex vivo CFSE T-cell proliferation, splenocytes of InsB:9-23-immunized SJL-DQ8 mice; assay type: cell-based, mouse; conditions: all peptides at 50 μg/ml; 5 days
Source text: ID NO: 23) and reverse primer [NT]

[3] = tested on: PBMCs isolated from DQ8 positive T1D patients; assay: Cytokine production in PBMCs from DQ8 positive recent-onset T1D patients; assay type: cell-based, human; conditions: stimulated with InsB:9-23 for 48 h; all peptides at 50 μg/ml
Source text: Subjects with a diagnosis of T1D within the previous 2 years were recruited from the Pediatric Endocrine clinic at Children Hospital at Montefiore and from the adult Endocrine clinics at Montefiore and Mount Sinai Hospitals (New York). Peripheral blood mononuclear cells (PBMCs) were isolated from heparinized blood using Ficoll-Paque (GE Healthcare); freshly isolated PBMCs were used for T-cell activation studies and for genotyping. DNA purified from the blood of the patients was typed for HLA-DQ as previously described (32). PBMCs isolated from DQ8 positive patients were seeded in 96 well plates with 200 μl medium (RPMI, 10% FBS). […] The stimulated PBMCs were assessed for cytokine production and T-cell proliferation as described above for mouse splenocytes. DQ8 typed patients with long standing T1D (>10 years) were used as negative controls in the experiments (no T-cell responses to islet peptides).

[4] = Pharmacokinetics of RI-CT in male CD-1 mice; conditions: mouse, in vivo
Procedure: 30 μL of each STD, QC sample and matrix for blanks was added to separate wells of a 96 well plate. 800 μL of water:MeOH (95:5, v/v) was added to the STDs, QCs and blanks. For study samples, 400 μL of water:MeOH (95:5, v/v) was added to each. Mouse whole blood samples were diluted 1:2 with 0.1% formic acid in an aqueous 25 mM EDTA solution when samples were collected; consequently, there was an initial dilution factor of 3. Additionally, 400 μL of water:MeOH (95:5, v/v) was added to each diluted sample. To all samples, 20 μL of internal standard (200 ng/mL tolbutamide) solution in water was added. The samples were vortexed vigorously for 5 minutes and then loaded onto a pre-conditioned Oasis HLB 96-well SPE plate. The Oasis HLB 96-well SPE plate was conditioned with 1 mL of methanol and then rinsed with 1 mL of water before the samples were loaded. Once loaded onto the Oasis HLB 96-well SPE plate, residual solution was removed by vacuum. The samples were eluted into a clean 96-well plate with 800 μL of ACN: 0.1% aqueous formic acid (70:30, v/v). The samples were evaporated to dryness under nitrogen at ambient temperature using a TurboVap 96 Concentration Workstation (Caliper Life Sciences). The residues were reconstituted in 150 μL of ACN: 0.1% aqueous formic acid (25:75, v/v) and 10 μL of 0.1 M TCEP. The samples were vortexed for approximately 10 minutes and then aliquots were injected for LC-MS/MS analysis.
• LC System: System #731 • HPLC Pump: Shimadzu LC-30AD • Autosampler: Shimadzu SIL-30AC MP HPLC Conditions: • Mobile Phase A=0.1% Aqueous Formic Acid • Mobile Phase B=0.1% Formic Acid in ACN • Column Temperature=Ambient • Injection Volume=8 μL • Column=ACE C8, 2.1×50 mm, 5 μm • Flow rate=0.6 mL/min • MS/MS System: System #730 • SCIEX API 5500 Triple Quad (S/N 213451604) MS Conditions: • Scan Type=MRM • Polarity=Positive • Ion Source=ESI • CAD=10 • CUR=20 • GS1/GS2=50/50 • IS=2500 • TEM=550

CC(C)C[C@@H](NC(=O)[C@@H](Cc1ccc(O)cc1)NC(=O)[C@@H](CC(C)C)NC(=O)[C@H](NC(=O)[C@@H](CS)NC(=O)CNC(=O)[C@@H](CCC(=O)O)NC(=O)[C@@H](CCCNC(=N)N)NC(=O)CNC(=O)CN)C(C)C)C(=O)N[C@H](C)C(=O)N[C@H](CCC(=O)O)C(=O)N[C@@H](C(=O)NCC(=O)NCC(=O)O)C(C)C [RI-CT]
consumption of the peptide after incubation with murine hepatocytes ([1]; 4 hours): little/no consumption | metabolic stability (comparison) ([1]; mouse hepatocytes): higher metabolic stability compared to RI-EXT | T-cell proliferation induced by InsB:9-23 (CFSE assay), SJL-DQ8 splenocytes [2]: significantly suppressed; also recorded: significantly decreased | IFN-γ production, PBMCs of DQ8 positive T1D patients [3]: significantly suppressed; also recorded: significantly decreased | IL-2 production, PBMCs of DQ8 positive T1D patients [3]: significantly suppressed; also recorded: significantly decreased | clearance ([4]; iv, 10 mg/kg): 27 mL/min/kg | half-life ([4]; iv, 10 mg/kg): 7.46 h | AUC(0-inf) ([4]; sc, 10 mg/kg): 4140 ng·h/mL | Cmax ([4]; sc, 10 mg/kg): 5120 ng/mL | Tmax ([4]; sc, 10 mg/kg): 0.77 h | bioavailability ([4]; sc, 10 mg/kg): 47% | half-life ([4]; sc, 10 mg/kg): 6.02 h | Vd ([4]; IV, single dose of 10 mg/kg, whole blood, read-out: volume of distribution): 6.9 L/kg

— patent publication US12552854B2, “Peptides that block presentation of antigenic islet peptides by HLA-DQ8 and methods for treating type-1 diabetes” (Icahn School of Medicine at Mount Sinai, priority 2019, dated 2026)
